Results as given in patent US20260069584A1, “METHODS OF TREATING CHRONIC MYELOID LEUKEMIA USING THE TYROSINE KINASE INHIBITOR VODOBATINIB” (Sun Pharma Advanced Research Company Ltd., priority 2022, published 2026).

Test: Part B: safety, treatment-emergent adverse events, DLT and MTD
Assay type: in vivo
Source text: For the purpose of the present invention, the adverse events were graded as per the National Cancer Institute's, Common Terminology Criteria for Adverse Events (NCI-CTCAE) Version 4.03 and Version 5.0 (https://evs.nci.nih.gov/ftp1/CTCAE/About.html). It is a descriptive terminology which can be utilized for Adverse Event (AE) reporting.
AEs were graded as per NCI-CTCAE Version 5.0. In the present study, along with others most common AEs for which patients were monitored were thrombocytopenia, neutropenia and anemia, any AE reported by the patient after the completion of AE collection period and considered related to the study drug was reported.
Dose Limiting Toxicity (DLT) is defined as the occurrence of any of the following unless clearly and incontrovertibly related to the underlying disease. The hematological DLTs were defined as per the Phase of CML: • a) Grade 3 or higher, or other non-hematological toxicity, including nausea, vomiting and diarrhea, and refractory to standard antiemetic therapy except alopecia and nail disorders; • b) Missed ≥25% of doses over 28 days due to toxicity in Cycle 1; and • c) Any grade of toxicity requiring dose reduction or discontinuation of IMP within the 28-days DLT assessment period (Cycle 1).
Safety Parameters: Parts B and C: Descriptive summaries were provided for the safety variables collected. Continuous variables were summarized using mean, standard deviation, minimum, median, and maximum. Categorical variables were summarized using frequency counts and percentages. For time-to-event variables, other percentiles were presented. In addition, summaries of AEs by intensity, seriousness, frequency, and relationship to IMP are presented. Adverse events (AE) s were coded using the Medical Dictionary for Regulatory Activities (MedDRA) and summarized by System Organ Class (SOC) and Preferred Term (PT).
In this study, the dose-escalation cohort started with an accelerated titration study design (ATD) and shifted to a 3±3 design when subjects in the preceding ATD cohort experienced either grade 2 or higher adverse events (AEs) or dose-limiting toxicity (DLT) during Cycle 1 that was not clearly and incontrovertibly related to the underlying disease or concomitant medications. The DLT period consisted of 28 days (Cycle 1). Subjects experiencing DLTs were managed with dose delays and/or discontinuation and continued in the study until disease progression. Decisions to advance to a succeeding dose level occurred after the evaluation of safety and tolerability data for a given dose level.
For the cohorts, where the 3±3 design applies, 3 subjects were enrolled initially. If 2 of these subjects experienced a Grade 2 or more toxicity (that was not clearly and incontrovertibly related to the underlying disease or concomitant medications), subsequent cohorts were escalated according to smaller increments. Further, if there were no DLTs in the first 3 subjects, dose escalation to the next higher dose level was allowed to proceed. If 1 of the 3 subjects experienced a DLT, that dose level was expanded to 6 subjects (3 additional subjects were enrolled). If 2 subjects at a given dose level experienced a DLT, the MTD was considered to have been exceeded. The next lower dose level was expanded to 6 subjects, or if 6 subjects had already been enrolled and no more than 1 of the 6 subjects experienced a DLT, then this lower dose level was considered the MTD. Additional subjects were enrolled in dose escalation cohorts for further assessment of safety and efficacy of the compound of Formula 1 at doses that were tolerated (i.e., doses that have <2 DLTs in 6 enrolled subjects or <1 DLT in 3 enrolled subjects). Thus 204 mg was arrived at as MTD. A subject experiencing a DLT was allowed to continue therapy with a reduced dose. Subjects who experienced a DLT and recovered were treated at the next lower dose level until disease progression or other events requiring further dose reduction existed. […]

SMILES: Cc1ccc(C(=O)NNC(=O)c2c(C)cccc2Cl)cc1C#Cc1cnc2ccccc2c1 [compound of Formula I, N′-(2-chloro-6-methylbenzoyl)-4-methyl-3-[2-(3-quinolyl)ethynyl]-benzohydrazide]
- anemia (grade 3 or 4): 13%
- diarrhea (grade 3 or 4): 2%
- thrombocytopenia (grade 3 or 4): 18.8%
- deaths during the study (human, in vivo): 5
- daily doses at which dose-limiting toxicities were present (human, in vivo, 28 days): 240 mg
- dose modification (of patients): 20.7%
- temporary dose interruptions (of patients): 37.7%
- MTD (maximum tolerated dose) (oral, once daily): 204 mg
- deaths considered related to the compound (out of 5 deaths): 1
- TEAEs, any grade (overall 53 patients): 96.2%
- grade 3 or 4 TEAEs (overall 53 patients): 64.1%
- highest efficacious and tolerable daily dose (patients with prior TKI exposure, mutations and ACAs): 204 mg
- All TEAEs, Any grade (≤2 prior TKIs (N = 18)): 16 No of pts
- All TEAEs, Grade 3/4 (≤2 prior TKIs (N = 18)): 6 No of pts
- Amylase increased, Any grade (≤2 prior TKIs (N = 18)): 0 No of pts
- Amylase increased, Grade 3/4 (≤2 prior TKIs (N = 18)): 0 No of pts
- Anemia, Any grade (≤2 prior TKIs (N = 18)): 2 No of pts
- Anemia, Grade 3/4 (≤2 prior TKIs (N = 18)): 2 No of pts
- Back pain, Any grade (≤2 prior TKIs (N = 18)): 1 No of pts
- Back pain, Grade 3/4 (≤2 prior TKIs (N = 18)): 0 No of pts
- Constipation, Any grade (≤2 prior TKIs (N = 18)): 2 No of pts
- Constipation, Grade 3/4 (≤2 prior TKIs (N = 18)): 0 No of pts
- Cough, Any grade (≤2 prior TKIs (N = 18)): 3 No of pts
- Cough, Grade 3/4 (≤2 prior TKIs (N = 18)): 0 No of pts
- Death, Any grade (≤2 prior TKIs (N = 18)): 3 No of pts
- Death, Grade 3/4 (≤2 prior TKIs (N = 18)): 0 No of pts
- Decreased appetite, Any grade (≤2 prior TKIs (N = 18)): 1 No of pts
- Decreased appetite, Grade 3/4 (≤2 prior TKIs (N = 18)): 0 No of pts
- Diarrhoea, Any grade (≤2 prior TKIs (N = 18)): 1 No of pts
- Diarrhoea, Grade 3/4 (≤2 prior TKIs (N = 18)): 0 No of pts
- Fatigue, Any grade (≤2 prior TKIs (N = 18)): 2 No of pts
- Fatigue, Grade 3/4 (≤2 prior TKIs (N = 18)): 0 No of pts
- Headache, Any grade (≤2 prior TKIs (N = 18)): 1 No of pts
- Headache, Grade 3/4 (≤2 prior TKIs (N = 18)): 0 No of pts
- Lipase increased, Any grade (≤2 prior TKIs (N = 18)): 0 No of pts
- Lipase increased, Grade 3/4 (≤2 prior TKIs (N = 18)): 0 No of pts
- Myalgia, Any grade (≤2 prior TKIs (N = 18)): 1 No of pts
- Myalgia, Grade 3/4 (≤2 prior TKIs (N = 18)): 0 No of pts
- Nasopharyngitis, Any grade (≤2 prior TKIs (N = 18)): 3 No of pts
- Nasopharyngitis, Grade 3/4 (≤2 prior TKIs (N = 18)): 0 No of pts
- Nausea, Any grade (≤2 prior TKIs (N = 18)): 0 No of pts
- Nausea, Grade 3/4 (≤2 prior TKIs (N = 18)): 0 No of pts
- Neutropenia, Any grade (≤2 prior TKIs (N = 18)): 2 No of pts
- Neutropenia, Grade 3/4 (≤2 prior TKIs (N = 18)): 2 No of pts
- Pruritis, Any grade (≤2 prior TKIs (N = 18)): 2 No of pts
- Pruritis, Grade 3/4 (≤2 prior TKIs (N = 18)): 0 No of pts
- Pyrexia, Any grade (≤2 prior TKIs (N = 18)): 2 No of pts
- Pyrexia, Grade 3/4 (≤2 prior TKIs (N = 18)): 0 No of pts
- Rhinitis, Any grade (≤2 prior TKIs (N = 18)): 2 No of pts
- Rhinitis, Grade 3/4 (≤2 prior TKIs (N = 18)): 0 No of pts
- SAEs, Any grade (≤2 prior TKIs (N = 18)): 6 No of pts
- SAEs, Grade 3/4 (≤2 prior TKIs (N = 18)): 2 No of pts
- TEAEs Leading to drug withdrawal, Any grade (≤2 prior TKIs (N = 18)): 3 No of pts
- TEAEs Leading to drug withdrawal, Grade 3/4 (≤2 prior TKIs (N = 18)): 0 No of pts
- TEAEs Related to comp of Formula I, Any grade (≤2 prior TKIs (N = 18)): 12 No of pts
- TEAEs Related to comp of Formula I, Grade 3/4 (≤2 prior TKIs (N = 18)): 3 No of pts
- TEAEs: Dose discontinued and restarted, Any grade (≤2 prior TKIs (N = 18)): 5 No of pts
- TEAEs: Dose discontinued and restarted, Grade 3/4 (≤2 prior TKIs (N = 18)): 2 No of pts
